Results on 1 compound are retold here after patent US12219938B2, “Mouse model of alcohol-induced liver cancer” (UNIVERSITY OF FLORIDA RESEARCH FOUNDATION, INCORPORATED, priority 2020, dated 2025).

Entries after “also recorded” stand apart in the source; their conditions may differ.

In experiment [1] the test system is senescent cells. The experiment in a line: Senolytic activity in livers of aging and STZ/HFD-treated mice. In kind it is in vivo. The conditions noted are these: data not shown.
The target in experiment [2] is T1, Bcl-xL (Mus musculus, UniProt Q64373).
T1 construct: from tissue; host or cells: liver of STZ/EtOH-treated diabetic mice
The experiment in a line: Western blotting of Bcl-xL in STZ/EtOH-treated diabetic livers. In kind it is in vivo, mice. The note with it: 5 mg/kg i.p. every other day, five-month administration, 6-month feeding of 5% ethanol, vs vehicle controls. The text has this: PROTACs are bivalent small molecules containing a ligand that recognizes a target protein linked to another ligand that recruits a specific E3 ubiquitin ligase.^46,47 PROTAC binding induces proximity-induced ubiquitination of the target protein and its subsequent degradation by proteasomes. PROTACs act catalytically to induce protein degradation in a sub-stoichiometric manner. They result in less drug exposure and reduced toxicity compared with traditional inhibitors since their effect is not limited by equilibrium occupancy. […] PROTAC technology was used to develop a Bcl-xL specific PROTAC (Bcl-xL-P), which targets Bcl-xL to the E3 ligase cereblon (CRBN) or VHL. ES ligases cereblon and VHL are poorly expressed in platelets.^51-53Bcl-xL and Bcl-2 dual PROTACs/degraders that link to the VHL ligand and target Bcl-xL and Bcl-2 to VHL for ubiquitination and proteasome degradation were also developed. These Bcl-xL and Bcl-2 dual PROTACs/degraders are not only potent antitumor agents but also effective senolytic agents. PROTAC 753B targets Bcl-xL and Bcl-2 for proteasome degradation by linking to E3 ligase VHL. […] We examined the effect of 753B on EtOH-induced hepatocarcinogenesis. […] Magnetic resonance imaging (MRI) can allow precise and accurate quantification of tumour volume. […]
A general note: A western blot detects proteins with antibodies after separation by electrophoresis.

Experiment [3] relates to senescent cells. The experiment in a line: X-gal staining for SA-β-galactosidase activity in STZ/EtOH-treated livers. Type of experiment: in vivo, mice. The note with it: 753B/EtOH-treated diabetic livers vs vehicle-treated controls.
Experiment [4] concerns SASP genes, liver cancer markers (Gpc3 and Afp), oncogenes (Myc, Tgfa). The experiment in a line: Western blotting and Q-RT-PCR of senescence, liver cancer marker and oncogene expression in STZ/EtOH-treated livers. Type of experiment: in vivo, mice. The source says: (§1) PROTACs are bivalent small molecules containing a ligand that recognizes a target protein linked to another ligand that recruits a specific E3 ubiquitin ligase.^46,47 PROTAC binding induces proximity-induced ubiquitination of the target protein and its subsequent degradation by proteasomes. PROTACs act catalytically to induce protein degradation in a sub-stoichiometric manner. They result in less drug exposure and reduced toxicity compared with traditional inhibitors since their effect is not limited by equilibrium occupancy. […] PROTAC technology was used to develop a Bcl-xL specific PROTAC (Bcl-xL-P), which targets Bcl-xL to the E3 ligase cereblon (CRBN) or VHL. ES ligases cereblon and VHL are poorly expressed in platelets.^51-53Bcl-xL and Bcl-2 dual PROTACs/degraders that link to the VHL ligand and target Bcl-xL and Bcl-2 to VHL for ubiquitination and proteasome degradation were also developed. These Bcl-xL and Bcl-2 dual PROTACs/degraders are not only potent antitumor agents but also effective senolytic agents. PROTAC 753B targets Bcl-xL and Bcl-2 for proteasome degradation by linking to E3 ligase VHL. […] We examined the effect of 753B on EtOH-induced hepatocarcinogenesis. 753B was administered through intraperitoneal injection at 5 mg/kg body weight every other day starting at one week after alcohol consumption. In parallel experiments, vehicle-treated control animals received a compound that could not interact with the VHL E3 ligase. […] Magnetic resonance imaging (MRI) can allow precise and accurate quantification of tumour volume. Therefore, we performed abdominal Mill examinations before or after Gd-chelate-enhanced MRI. HCC lesions were identified based on hypointense signals in T1 and hyperintense signals in T2-weighted scan at 6 months after EtOH feeding in the diabetic murine livers. In contract few lesions were found in EtOH fed animals treated with 753B (FIG. 16D). These Mill signals matched morphological evaluations of liver cancers in the sacrificed animals (FIG. 16E). […] Ratio of liver to body weight is an indicator of hepatocyte proliferation during liver regeneration and liver cancer development.

The subject of experiment [5] is EtOH-HCC. The experiment in a line: EtOH-induced hepatocarcinogenesis in STZ-treated diabetic mice (MRI and morphological evaluation of tumors). Type of experiment: in vivo.
Text: Fujii et al. developed NASH-derived HCC model (STAM model) using STZ and HFD32.^15 This model replicates clinicopathological processes from fatty liver, NASH, fibrosis to HCC under diabetic background. The very high fat diet (HFD: 60% kcal fat) in combination with STZ also could induced morphologically detectable protrusion of liver tumor nodules at postnatal week 16. We have established a novel model in which ASH-associated liver cancer occurs in STZ-treated mice within 6 months after start of alcohol consumption (FIG. 2, 12). Mice were administered STZ on day two after birth. The STZ was administered in a dose sufficient to kill insulin-producing cells, and lead to diabetic mice. The streptozotocin-treated mice were then fed a Lieber-Decarli alcohol-liquid diet (EtOH) for four months starting at 8 weeks of age. Streptozotocin (200 μg/pup) was given through subcutaneous injection into mice at postnatal day 2. This dose was used to induce pre-diabetic condition in treated mice. This alcohol-liquid diet is from Bio-Sery (F1258) and EtOH is added into the liquid diets daily.
as §1

Experiment [6] deals with liver fibrosis. The experiment in a line: Myofibroblast activation and liver fibrosis during EtOH-associated hepatocarcinogenesis in diabetic mice. Type of experiment: in vivo. The source says: Fibrosis is characterized by myofibroblast cell activation and excessive collagen deposition. Extensive fibrotic reaction has been reported during NASH to HCC transition through the chemical and dietary intervention by STZ/HFD cotreatment.^4 We compared effects of 753B and control compound on liver fibrosis in the diabetic animals after 5-month drug administration. […] Decreased liver fibrosis was further verified after quantitative measurement of collagen content based on hydroxyproline assay in livers exposed to 753B administration (1031.8±116.4 versus 721.2±215.0) (FIG. 17D). Ishak score of the liver tissue in the livers were also analyzed. Grade 0 has no fibrosis. Grade 1 has fibrous expansion of some portal areas, with or without short fibrous septa. Grade 2 contains fibrous expansion of most portal areas, with or without short fibrous septa. Grade 3 has fibrous expansion of most portal areas with an occasional portal to portal bridging. Grade 4 contains fibrous expansion of portal areas with marked bridging including portal-portal and portal-central bridging. Grade 5 has marked portal-portal and portal-central bridging with occasional nodules (incomplete cirrhosis). Grade 6 has cirrhosis, probable or define.

Setting [7] is: Q-RT-PCR, 753B/EtOH-treated diabetic livers vs vehicle-treated controls.
Where [8] appears, read: STZ/EtOH-treated livers, 5 mice per group.
[9] abbreviates: 5-month drug administration, vs controls.

T1 sequence (Q64373 whole entry): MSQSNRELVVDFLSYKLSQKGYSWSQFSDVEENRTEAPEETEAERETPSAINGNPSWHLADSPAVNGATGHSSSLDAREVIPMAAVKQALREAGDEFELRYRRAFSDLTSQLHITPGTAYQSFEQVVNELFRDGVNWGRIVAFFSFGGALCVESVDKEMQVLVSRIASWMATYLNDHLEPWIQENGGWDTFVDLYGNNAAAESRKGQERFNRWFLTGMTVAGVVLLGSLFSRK

Consider `Cc1ncsc1-c1ccc([C@H](C)NC(=O)[C@@H]2C[C@@H](O)CN2C(=O)[C@@H](NC(=O)CCCCCCC(=O)N2CCN(C[C@]3(C)CCC(c4ccc(Cl)cc4)=C(CN4CCN(c5ccc(C(=O)NS(=O)(=O)c6ccc(N[C@H](CCN7CCOCC7)CSc7ccccc7)c(S(=O)(=O)C(F)(F)F)c6)cc5)CC4)C3)CC2)C(C)(C)C)cc1` [753B], for which the “senolytic activity in livers” value in experiment [1] is given as “high senolytic activity”. Also, the “Bcl-xL accumulation (Western blotting)” value in experiment [2] was “effectively inhibited Bcl-xL accumulation”. For the same compound, in experiment [3], the “senescence by SA-β-gal activity (X-gal staining)” value is “little senescence; also recorded: inhibited senescent cell accumulation”. In addition, the “Gpc3 protein expression (Western blotting)” value in experiment [4] (5 mg/kg i.p. every other day, five-month administration, diabetic livers, 6-month feeding of 5% ethanol) is listed as “reduced Gpc3 expression; also recorded: blocked induction”. Besides, in experiment [4] (setting [7]), the “mRNA levels of SASP genes (Cdkn2a/p16, Cdkn2b/p15, Ccl2, Ccl11, Serpine1/PAI1, Ccl12)” value is listed as “significant reduction; also recorded: inhibited mRNA levels”; the “mRNA levels of liver cancer markers (Gpc3 and Afp)” value was “significant reduction; also recorded: inhibited mRNA levels”; the “mRNA levels of oncogenes (Myc and Tgfa)” value is listed as “significant reduction”. Besides, in experiment [5] (setting [8]), the “formation of tumor nodules, number” value is given as “efficiently inhibited” and the “formation of tumor nodules, volume” value is recorded as “efficiently inhibited”. Besides, in experiment [5] (STZ/EtOH-treated mice, 5 mice per group), the “ratio of liver to body weight” value was “significantly decreased”. Also, the “HCC lesions in MRI” value in experiment [5] (T1/T2-weighted scan at 6 months after EtOH feeding) was “few lesions”. For the same compound, the “tumor size (diameter) of the majority of tumors” value in experiment [5] (morphological evaluation, STZ/EtOH-treated livers) is “small in size (<2 mM and 2-5 mm)”. In experiment [6] (setting [9]), the “collagen deposition (Sirius red staining and Western analysis)” value was “significantly lower; also recorded: little collagen deposition”; the “myofibroblast activation (aSMA immunofluorescent staining and Western blotting)” value is “significantly reduced; also recorded: few myofibroblast activation”. Besides, in experiment [6] (Q-RT-PCR, diabetic animals after 5-month drug administration, vs control compound), the “mRNA of fibrosis-related markers (aSMA, Col1a1, Col1a2, Col4a1, Col4a2, Tgf-b2, Ctgf, Pdgf-b, Spp1)” value is listed as “significant downregulation; also recorded: lower levels”. In experiment [6] (STZ/EtOH/753B-treated livers), the “aSMA and pro-collagen type I proteins (Western blotting)” value is reported as “low levels”. Moreover, the “Ishak score of liver fibrosis” value in experiment [6] (vs controls, 5-6 livers per group) was “significantly decreased; also recorded: lower levels”.
